According to ChEMBL document CHEMBL4419176, “Compositions and methods for treating cancer” (2017):
Activity calls are given as the source filed them. No cut-off for these calls is given here.

Key:
[1] = target: Diacylglycerol kinase alpha (Homo sapiens) (UniProt P23743); assay: Inhibition of FLAG-tagged DGKa (unknown origin) using lipids and [gamma-32P]-ATP incubated for 15 mins by scintillation counting method
VMM39 [2] = assay: Cytotoxicity in human VMM39 cells assessed as reduction in cell viability at 25 to 150 uM by alamar blue dye based assay; assay type: functional
U-251 [3] = assay: Cytotoxicity in human U251 cells assessed as reduction in cell viability at 25 to 75 uM by alamar blue dye based assay; assay type: functional
Homo sapiens [4] = species: Homo sapiens; assay: Increase in PDGFRA expression in human G2 cells at 3 uM by immunoblot analysis; assay type: functional, cell-based
Homo sapiens [5] = species: Homo sapiens; assay: Increase in PDGFRA expression in human G88 cells at 3 uM by immunoblot analysis; assay type: functional, cell-based
A-375 [6] = assay: Antitumor activity against human A375 cells xenografted in athymic nu/nu mouse assessed as increase in mouse survival at 50 mg/kg dosed via daily oral gavage starting 6 days post-tumor implantation and measured up to 50 days post tumor implantation; assay type: functional, organism-based
[7] = target: Diacylglycerol kinase alpha (Homo sapiens) (UniProt P23743); assay: Inhibition of DGKa in human U251 cells assessed as reduction in p53 phosphorylation at S15 residues at 15 uM incubated for 24 hrs by dot-blot proteomics assay relative to baseline; assay type: cell-based
VMM39 [8] = assay: Induction of apoptosis in human VMM39 cells at 10 to 20 uM in presence of apoptosis inhibitor ZVAD-FMK by Annexin V-PE and 7-AAD staining based flow cytometry; assay type: functional, cell-based
[9] = target: Diacylglycerol kinase alpha (Homo sapiens) (UniProt P23743); assay: Inhibition of DGKa in human G2 cells assessed as decrease in RhoA expression by ELISA; assay type: cell-based
[10] = target: Diacylglycerol kinase alpha (Homo sapiens) (UniProt P23743); assay: Inhibition of DGKa in human VMM39 cells assessed as reduction in p53 phosphorylation at S15 residues at 12.5 to 17.5 uM incubated for 24 hrs by immunoblot analysis; assay type: cell-based
Homo sapiens [11] = species: Homo sapiens; assay: Cytotoxicity in human GB816 cells with TNFalpha-induced proneural-to- mesenchymal transition at 8 uM; assay type: functional, cell-based
VMM39 [12] = assay: Induction of apoptosis in human VMM39 cells at 10 to 20 uM by Annexin V-PE and 7-AAD staining based flow cytometry; assay type: functional, cell-based
[13] = Synergistic cytotoxicity in human G2 cells assessed as combination index at 2 uM in presence of imatinib incubated for 5 days; assay type: functional
[14] = target: Diacylglycerol kinase alpha (Homo sapiens) (UniProt P23743); assay: Inhibition of DGKa in human G88 cells assessed as decrease in RhoA expression by ELISA; assay type: cell-based
Homo sapiens [15] = assay: Antitumor activity against human G2 cells xenografted in orally dosed mouse assessed as increase in median mouse survival; assay type: functional, organism-based
Astrocyte [16] = assay: Cytotoxicity against immortalized astrocytes (unknown origin) assessed as reduction in cell viability at 10 to 15 uM in presence of 10 uM chloroquine incubated for 2 to 4 days by Trypan blue exclusion based hemocytometry
A549 = assay: Cytotoxicity in human A549 cells with TNFalpha-induced epithelial-mesenchymal transition at 15 uM; assay type: functional, cell-based
VMM39 [17] = assay: Cytotoxicity in human VMM39 cells assessed as reduction in cell viability at 15 uM in presence of 10 uM chloroquine incubated for 2 to 4 days by Trypan blue exclusion based hemocytometry; assay type: functional
A-375 [18] = assay: Antitumor activity against human A375 cells xenografted in athymic nu/nu mouse assessed as reduction in tumor volume at 50 mg/kg dosed via daily oral gavage starting 6 days post-tumor implantation and measured up to 50 days post tumor implantation; assay type: functional, organism-based
U-251 [19] = assay: Induction of autophagy in human U251 cells assessed as LC3-II accumulation at 10 uM in presence of 20 uM chloroquine by immunoblot analysis; assay type: functional, cell-based
U-251 [20] = assay: Induction of autophagy in human U251 cells assessed as LC3-II accumulation at 10 to 20 uM by immunoblot analysis; assay type: functional, cell-based
[21] = target: Diacylglycerol kinase alpha (Homo sapiens) (UniProt P23743); assay: Inhibition of DGKa in human G2 cells assessed as decrease in NF-kappaB expression under 4 Gy irradiation by luciferase reporter gene assay; assay type: cell-based
GL261 [22] = assay: Antitumor activity against mouse GL261 cells implanted in mouse syngeneic immunocompetent tumor model assessed as reduction in tumor volume at 100 mg/kg dosed via daily oral gavage starting 6 days post-tumor implantation and measured up to 100 days post tumor implantation; assay type: functional, organism-based
U-251 [23] = assay: Cytotoxicity in human U251 cells assessed as reduction in cell viability at 2.5 to 17.5 uM by alamar blue dye based assay; assay type: functional
U-251 [24] = assay: Cytotoxicity in human U251 cells assessed as reduction in cell viability at 10 uM in presence of 20 uM chloroquine incubated for 2 to 4 days by Trypan blue exclusion based hemocytometry; assay type: functional
[25] = target: Diacylglycerol kinase alpha (Homo sapiens) (UniProt P23743); assay: Inhibition of DGKa in human U251 cells assessed as reduction in p53 phosphorylation at S15 residues at 12.5 to 17.5 uM incubated for 24 hrs by immunoblot analysis; assay type: cell-based
Astrocyte [26] = assay: Cytotoxicity against immortalized astrocytes (unknown origin) assessed as reduction in cell viability at >20 uM incubated for 2 to 4 days by Trypan blue exclusion based hemocytometry
[27] = target: Diacylglycerol kinase alpha (Homo sapiens) (UniProt P23743); assay: Inhibition of DGKa in human JWL578 cells transfected with mTOR promoter assessed as decrease in mTOR promoter activity at 20 uM incubated for 36 to 48 hrs by luciferase reporter gene assay; assay type: cell-based
GL261 [28] = assay: Cytotoxicity in mouse GL261 cells assessed as reduction in cell viability at 10 uM in presence of 10 uM chloroquine incubated for 2 to 4 days by Trypan blue exclusion based hemocytometry; assay type: functional
[29] = target: Diacylglycerol kinase alpha (Homo sapiens) (UniProt P23743); assay: Inhibition of DGKa in human U251 cells transfected with mTOR promoter assessed as decrease in mTOR promoter activity at 20 uM incubated for 36 to 48 hrs by luciferase reporter gene assay; assay type: cell-based
GL261 [30] = assay: Antitumor activity against mouse GL261 cells implanted in mouse syngeneic immunocompetent tumor model assessed as reduction in tumor size at 50 mg/kg dosed via daily oral gavage starting 6 days post-tumor implantation and measured up to 100 days post tumor implantation by magnetic resonance imaging analysis; assay type: functional, organism-based
U-251 [31] = assay: Induction of apoptosis in human U251 cells at 10 to 20 uM in presence of apoptosis inhibitor ZVAD-FMK by Annexin V-PE and 7-AAD staining based flow cytometry; assay type: functional, cell-based
Homo sapiens [32] = species: Homo sapiens; assay: Cytotoxicity in G34 cells (unknown origin) assessed as reduction in cell viability at 10 uM in presence of 5 uM chloroquine incubated for 2 to 4 days by Trypan blue exclusion based hemocytometry; assay type: functional
U-251 [33] = assay: Antitumor activity against human U251 cells xenografted in athymic nu/nu mouse assessed as increase in mouse survival at 50 mg/kg dosed via daily oral gavage starting 7 days post-tumor implantation and measured up to 50 days post tumor implantation; assay type: functional, organism-based
VMM39 [34] = assay: Antitumor activity against human VMM39 cells xenografted in athymic nu/nu mouse assessed as induction of delay in tumor formation at 50 mg/kg dosed via daily oral gavage; assay type: functional, organism-based
[35] = Selectivity ratio of cytotoxicity against human mesenchymal GBM cells to cytotoxicity against human non-mesenchymal cells at 1 to 30 uM; assay type: functional
Homo sapiens [36] = species: Homo sapiens; assay: Cytotoxicity in human MPanc96 cells with TNFalpha-induced epithelial-mesenchymal transition at 15 uM; assay type: functional, cell-based
Homo sapiens [37] = species: Homo sapiens; assay: Cytotoxicity in human GB464 cells with TNFalpha-induced proneural-to- mesenchymal transition at 8 uM; assay type: functional, cell-based
[38] = target: Diacylglycerol kinase alpha (Homo sapiens) (UniProt P23743); assay: Inhibition of DGKa in human G88 cells assessed as decrease in NF-kappaB expression under 4 Gy irradiation by luciferase reporter gene assay; assay type: cell-based
U-251 [39] = assay: Synergistic cytotoxicity in human U251 cells assessed as reduction in cell viability at 7.5 uM in presence of 50 uM TMZ by alamar blue dye based assay; assay type: functional
[40] = target: Diacylglycerol kinase alpha (Homo sapiens) (UniProt P23743); assay: Inhibition of DGKa in human U251 cells assessed as HSP60 protein level at 15 uM incubated for 24 hrs by dot-blot proteomics assay relative to baseline; assay type: cell-based; design: scale not given: the % may be the effect or the level left
[41] = Cytotoxicity in human JWL578 cells assessed as reduction in cell viability incubated for 2 to 4 days by Trypan blue exclusion based hemocytometry; assay type: functional
Homo sapiens [42] = species: Homo sapiens; assay: Cytotoxicity in human JWL578 cells assessed as reduction in cell viability at 10 uM in presence of phosphatidic acid incubated for 2 to 4 days by Trypan blue exclusion based hemocytometry; assay type: functional
B16 = assay: Cytotoxicity in mouse B16 cells assessed as reduction in cell viability at 10 uM in presence of 5 uM chloroquine incubated for 2 to 4 days by Trypan blue exclusion based hemocytometry; assay type: functional
[43] = target: Diacylglycerol kinase alpha (Homo sapiens) (UniProt P23743); assay: Inhibition of DGKa in human G2 cells assessed as decrease in GGTase-1 by measuring increase in unprenylated ras-related protein RaplA expression by immunoblot analysis; assay type: cell-based
VMM39 [44] = assay: Antitumor activity against human VMM39 cells xenografted in athymic nu/nu mouse assessed as induction of delay in tumor formation at 10 mg/kg dosed via daily oral gavage; assay type: functional, organism-based
VMM39 [45] = assay: Cytotoxicity in human VMM39 cells assessed as reduction in cell viability at 2.5 to 22.5 uM by alamar blue dye based assay; assay type: functional
[46] = target: Diacylglycerol kinase alpha (Homo sapiens) (UniProt P23743); assay: Inhibition of DGKa in human U251 cells assessed as reduction in P70 S6K phosphorylation at T389/T421 residues at 15 uM incubated for 24 hrs by dot-blot proteomics assay relative to baseline; assay type: cell-based
[47] = target: Diacylglycerol kinase alpha (Homo sapiens) (UniProt P23743); assay: Inhibition of DGKa in human G88 cells assessed as decrease in GGTase-1 by measuring increase in unprenylated ras-related protein RaplA expression by immunoblot analysis; assay type: cell-based
Homo sapiens [48] = species: Homo sapiens; assay: Cytotoxicity in G528 cells (unknown origin) assessed as reduction in cell viability at 10 to 15 uM in presence of 10 uM chloroquine incubated for 2 to 4 days by Trypan blue exclusion based hemocytometry; assay type: functional
U-251 [49] = assay: Cytotoxicity in human U251 cells assessed as reduction in cell viability at 10 uM in presence of phosphatidic acid incubated for 2 to 4 days by Trypan blue exclusion based hemocytometry; assay type: functional
[50] = target: Diacylglycerol kinase alpha (Homo sapiens) (UniProt P23743); assay: Inhibition of DGKa in human U251 cells transfected with HIF1a promoter assessed as decrease in HIF1a promoter activity at 20 uM incubated for 36 to 48 hrs by luciferase reporter gene assay; assay type: cell-based
VMM39 [51] = assay: Synergistic cytotoxicity in human VMM39 cells assessed as reduction in cell viability at 7.5 uM in presence of 50 uM TMZ by alamar blue dye based assay; assay type: functional
[52] = Synergistic cytotoxicity in human G88 cells assessed as combination index at 2 uM in presence of imatinib incubated for 5 days; assay type: functional
U-251 [53] = assay: Induction of apoptosis in human U251 cells at 10 to 20 uM by Annexin V-PE and 7-AAD staining based flow cytometry; assay type: functional, cell-based

Diacylglycerol kinase alpha (Homo sapiens), sequence (P23743 whole entry): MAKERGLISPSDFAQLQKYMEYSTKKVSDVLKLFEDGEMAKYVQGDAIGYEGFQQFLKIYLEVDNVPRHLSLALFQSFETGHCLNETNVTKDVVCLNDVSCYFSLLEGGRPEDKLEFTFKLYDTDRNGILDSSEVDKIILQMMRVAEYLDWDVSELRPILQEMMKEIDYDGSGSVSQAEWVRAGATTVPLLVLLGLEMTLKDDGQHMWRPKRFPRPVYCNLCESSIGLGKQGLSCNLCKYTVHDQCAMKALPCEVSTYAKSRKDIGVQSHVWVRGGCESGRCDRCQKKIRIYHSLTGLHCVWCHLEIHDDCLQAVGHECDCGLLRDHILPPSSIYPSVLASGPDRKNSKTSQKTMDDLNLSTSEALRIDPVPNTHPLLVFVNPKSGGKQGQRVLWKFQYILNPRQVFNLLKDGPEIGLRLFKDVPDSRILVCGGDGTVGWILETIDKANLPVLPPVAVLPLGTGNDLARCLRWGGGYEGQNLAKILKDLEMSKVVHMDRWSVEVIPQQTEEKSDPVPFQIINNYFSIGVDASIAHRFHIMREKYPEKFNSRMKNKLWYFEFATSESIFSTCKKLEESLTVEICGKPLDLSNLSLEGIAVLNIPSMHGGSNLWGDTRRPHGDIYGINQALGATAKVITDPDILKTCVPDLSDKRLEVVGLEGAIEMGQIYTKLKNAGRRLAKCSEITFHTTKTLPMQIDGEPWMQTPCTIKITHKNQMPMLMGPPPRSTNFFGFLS

Cc1nc2sccn2c(=O)c1CCN1CCC(=C(c2ccccc2)c2ccc(F)cc2)CC1
inhibition [1]: Dose-dependent effect

Cn1nnc2c(C(N)=O)ncn2c1=O
Activity (VMM39 [2]): inactive
Activity (U-251 [3]): inactive

Cc1nc2sccn2c(=O)c1CCN1CCC(=C(c2ccc(F)cc2)c2ccc(F)cc2)CC1 [RITANSERIN]
Activity (Homo sapiens [4]): Active
Activity (Homo sapiens [5]): Active
inhibition [1]: Dose-dependent effect
Activity (A-375 [6]): Active
inhibition [7]: Active
Activity (VMM39 [8]): Active
inhibition [9]: Active
inhibition [10]: Active
Activity (Homo sapiens [11]): Active
Activity (VMM39 [12]): Active
CI [13]: 0.24
inhibition [14]: Active
Activity (Homo sapiens [15]): Active
Activity (Astrocyte [16]): Non-Toxic
Activity (A549): Active
Activity (VMM39 [17]): Active
Activity (A-375 [18]): Active
Activity (U-251 [19]): Active
Activity (U-251 [20]): Active
inhibition [21]: Active
Activity (GL261 [22]): Active
Activity (U-251 [23]): inactive
Activity (U-251 [24]): Active
inhibition [25]: Active
Activity (Astrocyte [26]): Non-Toxic
inhibition [27]: Active
Activity (GL261 [28]): Active
inhibition [29]: Active
Activity (GL261 [30]): Active
Activity (U-251 [31]): Active
Activity (Homo sapiens [32]): Active
Activity (U-251 [33]): Active
Activity (VMM39 [34]): Active
Ratio [35]: 3 - 4
Activity (Homo sapiens [36]): Active
Activity (Homo sapiens [37]): Active
inhibition [38]: Active
Activity (U-251 [39]): <=90%
Activity [40]: 10%
IC50 [41]: 5 to 10 µM
Activity (Homo sapiens [42]): inactive
Activity (B16): Active
inhibition [43]: Active
Activity (VMM39 [44]): inactive
Activity (VMM39 [45]): inactive
inhibition [46]: Active
inhibition [47]: Active
Activity (Homo sapiens [48]): Active
Activity (U-251 [49]): inactive
inhibition [50]: Active
Activity (VMM39 [51]): <=90%
CI [52]: 0.25
Activity (U-251 [53]): Active
